Among the test systems are 786-0 renal; ACHN renal; BT-549 breast; CCRF-CEM leukemia; HOP-62 NSCLC; HOP-92 NSCLC; HT29 colon; MDA-N; OVCAR-3 ovarian; SF-295 CNS; SN12C renal.
What all share (assay): NCI tumour cell line growth inhibition, 48 h

The structures appear in SMILES notation.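 Assay format: 96-well plates, 48-hour exposure. Abbreviation: GI50, concentration required for 50% inhibition of growth. TGI is the concentration that stops growth completely.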

As for `COc1cn2c(cc1=O)COc1ccc(-c3ccccc3)cc1-2`, the TGI in the test with 786-0 renal was over 100 µM; in the test on ACHN renal, over 100 µM; in the test with BT-549 breast, over 82.9 µM; in the test with CCRF-CEM leukemia, over 100 µM; in the test on HOP-62 NSCLC it was over 100 µM; in the test on HOP-92 NSCLC, over 100 µM. For the same compound, the TGI in the test on HT29 colon is over 100 µM; with MDA-N it was over 100 µM; in the test on OVCAR-3 ovarian, 98.8 µM; with SF-295 CNS, over 100 µM; in the test on SN12C renal, over 100 µM. Besides, in the test with CCRF-CEM leukemia, the GI50 is 40.2 µM.

In the case of `C=CCc1c(O)c2ccccc2[nH]c1=O`, the TGI in the test on 786-0 renal, in the test with ACHN renal, with BT-549 breast, with CCRF-CEM leukemia, in the test with HOP-62 NSCLC and in the test with HOP-92 NSCLC was over 100 µM throughout. Further, the TGI in the test on HT29 colon, in the test on MDA-N, in the test with OVCAR-3 ovarian, with SF-295 CNS and with SN12C renal was over 100 µM each time.

With `c1ccc2c(c1)CC1c3[nH]c4ccccc4c3CCN21` (configuration not stated), the TGI in the test on 786-0 renal, in the test with ACHN renal, in the test with BT-549 breast, in the test with CCRF-CEM leukemia, with HOP-62 NSCLC and in the test on HOP-92 NSCLC was over 10 µM in each case. Besides, the TGI with HT29 colon, with MDA-N, in the test with OVCAR-3 ovarian, with SF-295 CNS and with SN12C renal was over 10 µM in each case.

Turning to `O=C(Nc1cccc2nsnc12)c1cc2c(cc1Cl)Sc1nccn1S2(=O)=O`, the TGI in the test with 786-0 renal is 32 µM; in the test on ACHN renal it was 35.9 µM; with BT-549 breast it was 36.9 µM; with CCRF-CEM leukemia, over 36.6 µM; in the test on HOP-62 NSCLC, 4.37 µM; in the test on HOP-92 NSCLC it was 25.2 µM. The TGI in the test with HT29 colon came out at 7.67 µM; in the test with MDA-N it was 34.3 µM; in the test with OVCAR-3 ovarian it was 3.47 µM; in the test with SF-295 CNS it was 28.2 µM; with SN12C renal it was 31.1 µM.

Consider `COc1ccc(C2CC(c3c(C)nn(-c4ccccc4)c3-c3ccc(C)cc3O)=NN2c2ccccc2)cc1` (configuration not stated), for which the TGI in the test on 786-0 renal is over 100 µM; with ACHN renal, over 67.4 µM; with BT-549 breast, over 100 µM; with CCRF-CEM leukemia, over 100 µM; in the test on HOP-62 NSCLC, over 100 µM; in the test on HOP-92 NSCLC, over 100 µM. Moreover, the TGI with HT29 colon was over 44 µM; with MDA-N, over 100 µM; in the test on OVCAR-3 ovarian, over 100 µM; in the test with SF-295 CNS, over 100 µM; in the test on SN12C renal, over 100 µM.

Consider `CC1=NN(c2ccc(C)cc2)C2(C1)SCC(=O)N2c1nc2ccccc2s1` (configuration not stated), for which the TGI in the test on 786-0 renal is 71 µM; in the test on ACHN renal, over 100 µM; with BT-549 breast it was over 100 µM; in the test with CCRF-CEM leukemia it was 28.4 µM; with HOP-62 NSCLC, over 100 µM; in the test on HOP-92 NSCLC it was over 100 µM. Also, the TGI is over 100 µM with HT29 colon; 70.2 µM with MDA-N; 92.6 µM with OVCAR-3 ovarian; over 100 µM in the test with SF-295 CNS; 52.2 µM in the test on SN12C renal.

`CN(C)CCCn1c2ccccc2c2cnccc21`: the TGI in the test with 786-0 renal, with ACHN renal, in the test with BT-549 breast, with CCRF-CEM leukemia, with HOP-62 NSCLC and in the test with HOP-92 NSCLC was over 100 µM each time. Besides, the TGI was over 100 µM with HT29 colon; over 100 µM in the test on MDA-N; over 100 µM with OVCAR-3 ovarian; over 100 µM with SF-295 CNS; 74.6 µM in the test on SN12C renal.

With `CCOC(=O)c1c2c(n(C)c1-c1ccccc1)C(=O)C(C)=CC2=O`, the TGI with 786-0 renal is 32.1 µM; in the test on ACHN renal, 20.7 µM; in the test with BT-549 breast, 27.7 µM; with CCRF-CEM leukemia it was 7.98 µM; in the test on HOP-62 NSCLC, 33.6 µM; in the test with HOP-92 NSCLC, 5.46 µM. The TGI in the test with HT29 colon was determined as 35.1 µM; in the test with MDA-N, 4.08 µM; with OVCAR-3 ovarian, 8.17 µM; with SF-295 CNS, 36.8 µM; with SN12C renal, 24.1 µM.

Take `CC1(C)OC[C@@H](/C=C\CCO[Si](c2ccccc2)(c2ccccc2)C(C)(C)C)N1C(=O)c1ccccc1`: the TGI with 786-0 renal is 28 µM; with ACHN renal it was over 100 µM; in the test on BT-549 breast, over 100 µM; in the test on CCRF-CEM leukemia it was 59.7 µM; in the test with HOP-62 NSCLC it was over 100 µM; in the test on HOP-92 NSCLC, 52.7 µM. For the same compound, the TGI in the test on HT29 colon is 17.3 µM; with MDA-N, over 100 µM; in the test on OVCAR-3 ovarian, 30.5 µM; with SF-295 CNS, over 100 µM; in the test on SN12C renal, 29.9 µM.

For the compound `CCCCC[C@H](O)[C@H](C)C=C1SCCCS1`, the TGI in the test on 786-0 renal, in the test on ACHN renal, in the test with BT-549 breast, in the test with CCRF-CEM leukemia, in the test on HOP-62 NSCLC and in the test on HOP-92 NSCLC was over 100 µM throughout. Also, the TGI with HT29 colon, in the test on MDA-N, in the test with OVCAR-3 ovarian, in the test on SF-295 CNS and with SN12C renal was over 100 µM throughout.

Regarding `[N-]=[N+]=NC1(c2ccccc2)C(=O)Nc2ccccc2C1=O` (configuration not stated), the TGI in the test on 786-0 renal is over 100 µM; in the test with ACHN renal it was over 100 µM; with BT-549 breast, 34.8 µM; in the test on CCRF-CEM leukemia, over 100 µM; in the test on HOP-62 NSCLC it was over 100 µM; with HOP-92 NSCLC, 84.5 µM. Also, the TGI in the test on HT29 colon, in the test with MDA-N, in the test on OVCAR-3 ovarian, with SF-295 CNS and with SN12C renal was over 100 µM each time.

For the compound `O=C1/C(=C/c2cccc(Oc3ccccc3)c2)N=C(c2ccccc2)N1c1nc2ccc(Sc3ccccc3)cc2[nH]1`, the TGI in the test on 786-0 renal was over 100 µM; in the test with ACHN renal it was over 100 µM; in the test on BT-549 breast, 55 µM; in the test with CCRF-CEM leukemia, over 100 µM; in the test on HOP-62 NSCLC, over 100 µM; in the test on HOP-92 NSCLC, over 100 µM. In addition, the TGI with HT29 colon is 63.2 µM; in the test on MDA-N, 35.8 µM; in the test with OVCAR-3 ovarian, 47.7 µM; in the test on SF-295 CNS, 53.7 µM; in the test on SN12C renal, 70.5 µM.

In the case of `N#Cc1c(=O)c2cccnc2n2c1[nH]c1ccccc12`, the TGI is over 100 µM in the test on 786-0 renal; over 100 µM in the test on ACHN renal; over 100 µM in the test with BT-549 breast; over 100 µM in the test on CCRF-CEM leukemia; over 100 µM in the test with HOP-62 NSCLC; 68.4 µM with HOP-92 NSCLC. Further, the TGI in the test with HT29 colon, in the test on MDA-N, in the test with OVCAR-3 ovarian, with SF-295 CNS and in the test on SN12C renal was over 100 µM in each case.

For `CC1CN=C(c2cccc(OCc3ccc(COc4cccc(C5=NCC(C)N5)c4)cc3)c2)N1` (configuration not stated), the TGI in the test on 786-0 renal was over 100 µM; in the test on ACHN renal, over 100 µM; with BT-549 breast it was over 100 µM; in the test with CCRF-CEM leukemia, 66.8 µM; in the test on HOP-62 NSCLC, over 100 µM; in the test with HOP-92 NSCLC it was over 100 µM. Besides, the TGI in the test on HT29 colon, in the test on MDA-N, in the test with OVCAR-3 ovarian, with SF-295 CNS and with SN12C renal was over 100 µM in each case.

Take `O=C1c2ccccc2S(=O)(=O)c2ccccc21`: the TGI with 786-0 renal, in the test with ACHN renal, in the test with BT-549 breast, in the test on CCRF-CEM leukemia, in the test on HOP-62 NSCLC and with HOP-92 NSCLC was over 100 µM each time. Further, the TGI in the test with HT29 colon, in the test with MDA-N, in the test with OVCAR-3 ovarian, with SF-295 CNS and with SN12C renal was over 100 µM each time.

As to `CCCCn1cc(C(=O)O)c(=O)c2c3sccc3ccc21`, the TGI in the test with 786-0 renal, in the test on ACHN renal, in the test on BT-549 breast, in the test on CCRF-CEM leukemia, with HOP-62 NSCLC and in the test on HOP-92 NSCLC was over 100 µM each time. Further, the TGI in the test on HT29 colon, with MDA-N, in the test with OVCAR-3 ovarian, with SF-295 CNS and with SN12C renal was over 100 µM in each case.

For the origin of these results see PubChem BioAssay (NCI).
